Source: patent publication US20050119243A1, “HIF-1 inhibitors and methods of use thereof” (priority 2003, published 2005)
Residues, ends and D or L forms follow the SMILES beside them. *: point of attachment. Cbz = O=C(OCc1ccccc1)*

Tests used:
[1] = system: HIF-1α; assay: HIF-1α detection in HEK 293 and HT144 cells treated with DBM plus metals; format: cell-based, human; settings: cells exposed to DBM plus the metal
Source text: In subsequent studies, similar data has been found for HEK 293 human embryonic kidney cells and HT144 melanoma cells treated with either DBM or Zn^2+. […] This finding appears to be unique to the combination of DBM with Zn^2+ since it was not observed in cells exposed to DBM plus other metals such as Fe^3+, Co^2+, Cd^2+, and Ni^2+. Furthermore, this unexpected reversal of the independent effects of DBM and Zn^2+ was not blocked by hypoxia. These observations are counterintuitive since inhibitors of HIF P4H should impede degradation of HIF-1α. Also, these two HIF P4H inhibitors appear to work in concert under inhibitory conditions to down-regulate HIF-1α with little effect on HIF-1α mRNA levels.

[2] = system: HIF-1α and VEGF; settings: LNCaP cells, ambient O2; cited from earlier work
[3] = system: HIF-1α; assay: Western blot analysis of HIF-1α in HEK 293 cells under ambient oxygen; format: cell-based, human; settings: HEK 293, ambient oxygen, 1 hr
Procedure: The first unexpected finding was that the combination of DBM plus Zn^2+ reversed the induced stabilization of HIF-1α observed when the cells were exposed to either DBM or Zn^2+ alone under normoxic conditions (FIG. 15). HEK 293 embryonic kidney cells were incubated at ambient levels of oxygen for 1 hr with the addition of DBM alone, Zn^2+ alone or the combination. HIF-1α was not detected at baseline by Western blot (FIG. 15, lane 1).
One possible explanation for the loss of HIF-1α stabilization in cells treated with DBM plus Zn^2+ is chelation. DBM is a bidentate metal chelator that could itself bind to Zn^2+ in a 2:1 stochiometric ratio, however, the observed loss of HIF-1α stabilization occurred when either DBM or Zn^2+ was present in 50 μM excess at ratios of 4:1 (FIG. 15, lane 3) and 1:1 (FIG. 15, lane 5), respectively. […] Presumably, the increases in HIF-1α in FIG. 15 resulted from HIF P4H inhibition leading to diminished prolyl-4-hydroxylation and disruption of proteosomal degradation.

[4] = system: HIF-1α; assay: Western blot analysis of HIF-1α in HEK 293 cells under hypoxic conditions; format: cell-based, human; settings: for HIF-1α levels by Western blot: 2 hours under 1% O2
Procedure: (§1) HT 144 melanoma cells (FIG. 16(A)) and HEK 293 embryonic kidney cells (FIG. 16(B)) were incubated for 2 hours under 1% O2. HIF-1α […].

[5] = system: HIF-1α mRNA; assay: Semiquantitative PCR of HIF-1α mRNA levels in HEK 293 cells under normoxia; format: cell-based, human; settings: HEK 293, normoxia, 2 hours, serum free media
Procedure: The effects of DBM alone, Zn^2+ alone and DBM plus Zn^2+ on HIF-1αmRNA levels were assessed by semiquantitative PCR in extracts of HEK 293 kidney cells under normoxia for 2 hours in serum free media (FIG. 17). […] HIF-1αZ mRNA levels were not found to be increased (data not shown).

[6] = system: HIF-1α; assay: Western blot analysis of HIF-1α in HT144 melanoma cells under hypoxic conditions; format: cell-based, human; settings: HT 144 cells; for HIF-1α levels by Western blot: 2 hours under 1% O2
Procedure: as §1

[7] = system: HIF-1α; assay: Western blot analysis of HIF-1α in HEK 293 cells with or without proteosome inhibitor MG-132, ambient oxygen; format: cell-based, human; settings: HEK 293, ambient oxygen; for HIF-1α detection by Western blot: 2 hours, agent without further addition; for HIF-1α detection by Western blot with MG-132 added: agent plus MG-132
Procedure: Proteosomal degradation of HIF-1α was assessed in HEK 293 embryonic kidney cells treated with DBM alone, Zn^2+ alone or the combination under ambient oxygen in the presence or absence of the proteosome inhibitor MG-132 (FIG. 18). […] (FIG. 18, lane 5). […] The HIF-1α isoforms are more clearly resolved on the gel from FIG. 18 than FIG. 15. This may be due to differences in the time the gels were run.

[8] = system: HIF-1α; assay: Western blot analysis of HIF-1α in VHL (−/−) RCC-4 renal cell carcinoma cells, normoxic; format: cell-based, human; settings: RCC-4 VHL (−/−), 1 hour
Source text: As expected, HIF-1α was detected by Western blot under normoxic conditions (FIG. 19, lane 1). […] These experiments have not been performed as yet in RCC4 cells with DBM alone or in RCC4 cells transfected with pVHL.

[9] = system: VEGF; settings: patients with metastatic kidney cancer, high doses; cited from earlier work
VEGF, sequence (P15692 207-311 limits assumed): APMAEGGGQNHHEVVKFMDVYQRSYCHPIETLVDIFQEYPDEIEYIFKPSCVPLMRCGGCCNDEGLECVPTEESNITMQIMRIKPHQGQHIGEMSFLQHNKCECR

[Cd+2] [Cd^2+]
Loss of HIF-1α detection on simultaneous treatment with DBM plus metal [1]: not observed

[Co+2] [Co^2+, reference compound]
HIF-1α and VEGF levels [2]: rapidly increase
Loss of HIF-1α detection on simultaneous treatment with DBM plus metal [1]: not observed

O=C(CC(=O)c1ccccc1)c1ccccc1 [DBM, 1,3-diphenylpropane-1,3-dione]
HIF-1α levels by Western blot ([3]; DBM alone at 100 μM): significant increase in HIF-1α levels
HIF-1α levels by Western blot [4]: significantly increased the levels of HIF-1α
HIF-1α mRNA levels (PCR product) [5]: not significantly different from baseline
HIF-1α levels by Western blot [6]: significantly increased the levels of HIF-1α
HIF-1α detection by Western blot [7]: readily detected
HIF-1α detection by Western blot with MG-132 added [7]: did not stabilize these other forms of HIF-1α
HIF-1α and VEGF levels [2]: rapidly increase

[Fe+3] [Fe^3+, reference compound]
HIF-1α levels by Western blot, metal added to DBM ([4]; 2 hours under 1% O2, with DBM): decreased slower migrating isoforms of HIF-1α
HIF-1α levels by Western blot, metal added to DBM ([6]; 2 hours under 1% O2, with DBM): did not significantly alter the effect of DBM on HIF-1α levels
Loss of HIF-1α detection on simultaneous treatment with DBM plus metal [1]: not observed

CC(C)C[C@@H](C=O)NC(=O)[C@H](CC(C)C)NC(=O)[C@H](CC(C)C)NC(=O)OCc1ccccc1 [MG-132, reference compound] (Cbz-Leu-Leu-Leu-aldehyde)
HIF-1α detection by Western blot [7]: accumulation of a broad range of proteins that possibly represent ubiquitinated forms of HIF-1α
HIF-1α detection by Western blot [8]: Stabilization of HIF-1α was enhanced

[Ni+2] [Ni^2+]
Loss of HIF-1α detection on simultaneous treatment with DBM plus metal [1]: not observed

[Zn+2] [Zn^2+]
HIF-1α levels by Western blot ([3]; Zn^2+ alone 25 μM to 100 μM): increased HIF-1α levels in a dose dependent manner
HIF-1α levels by Western blot [4]: little effect
HIF-1α mRNA levels (PCR product) [5]: not significantly different from baseline
HIF-1α levels by Western blot [6]: decreased the more rapidly migrating isoforms of HIF-1α
HIF-1α detection by Western blot [7]: readily detected
HIF-1α detection by Western blot with MG-132 added [7]: did not stabilize these other forms of HIF-1α

bevacizumab: humanized monoclonal antibody specific for VEGF
Clinical response [9]: Clinical responses have been observed
